From US8546137B2, “Inhibition of dendritic cell-driven regulatory T cell activation and potentiation of tumor antigen-specific T cell responses by interleukin-15 and MAP kinase inhibitor” (The Board of Trustees of the University of Arkansas, priority 2007, dated 2013)

Legend:
[1] = test system: hepsin 48-84 peptide-specific CD4+ T cells; assay: TNFα expression by CD4+ T cells stimulated with treated DC; format: cell-based, human; conditions: DC treated throughout culture; IL-15 100 ng/ml, inhibitor 10 μM; relative to standard DC; T cells maintained with IL-2
Protocol: (§1) Foxp3 expression was determined according to the manufacturer's staining protocol (eBioscience), using the provided fixation and permeabilization buffers. Intracellular cytokine expression was measured by flow cytometry after overnight co-culture of T cells with peptide-pulsed or control autologous LCL. T cells (1.5×10^6) were plated in 12 well Costar plates in 2 ml RPMI/10Hu. T cells were stimulated with phorbol myristyl acetate (50 ng/ml) and ionomycin (500 ng/ml) as a positive control. At the onset of co-culture, 10 μg/ml of Brefeldin A was added to block cytokine release. Cells were collected after overnight stimulation and fixed in 2% paraformaldehyde in PBS for 10 minutes at room temperature. The cells were washed once in PBS and again in 0.5% saponin and 1% BSA in PBS. T cells were labeled with cytokine-specific PE or FITC-conjugated mAb for 30 minutes at room temperature. After staining, the cells were washed twice in 0.5% saponin and 1% BSA in PBS, once with 0.5% BSA in PBS, and fixed in 2% paraformaldehyde in PBS. Samples were analyzed with a FACSCalibur (Becton-Dickinson) and Cellquest or WinMDI software.
Treatment of DC with IL-15 and a p38 MAP kinase inhibitor enhances CD4^+ helper T cell TNFα expression in response to tumor antigen stimulation, and diminishes Treg foxp3 expression. […]

[2] = test system: tumor antigen-specific CD4+ T cells; assay: PD-1 expression by CD4+ T cells stimulated with treated DC; format: cell-based, human; conditions: treatment of DC
Protocol: (§2) Treatment of DC with IL-15 and a p38 MAP kinase inhibitor enhances CD4^+ helper T cell TNFα expression in response to tumor antigen stimulation, and diminishes Treg foxp3 expression. DC were treated with IL-15 (100 ng/ml) and/or a p38 MAP kinase inhibitor (10 μM p38 MAP kinase inhibitor III, from Calbiochem, La Jolla, Calif.) throughout their culture (i.e., from day 0 through completion of DC maturation on day 7). DC were loaded with the hepsin 48-84 peptide antigen on day 5 (i.e., at the time of addition of maturation cytokines).

[3] = test system: matriptase 170-204 peptide-specific, DC-activated CD4+ T cells; assay: Foxp3 and GITR expression by flow cytometry, CD4+ T cells; format: cell-based, human
Protocol: (§3) Peripheral blood was drawn from healthy adult volunteer donors, following an IRB-approved protocol. PBMC were recovered by gradient centrifugation (Lymphoprep; Greiner Bio-One, Longwood, Fla.). For preparation of DC, PBMC were placed in 6 well plates (Costar, Cambridge, Mass.) at a concentration of 5×10^6/well in AIM-V medium. After incubation for 2-3 hours at 37° C., non-adherent cells were removed and the medium was replaced with AIM-V plus 800 U/ml GM-CSF and 500 U/ml IL-4. On days 3 and 5, half the medium was removed and replaced with AIM-V plus 800 U/ml GM-CSF and 500 U/ml IL-4. Maturation cytokines (1 μM/ml PGE2, 1000 U/ml TNFα, and 500 U/ml IL-1β) were added on day 5. Where indicated, IL-15 (100 ng/ml) was present throughout DC culture (i.e., from day 0, and supplemented on days 3 and 5). For stimulation of peptide-specific CD4^+ helper T cell and CD8^+ CTL responses, DC were loaded with 50 μg/ml of peptide on day 5 (at the time of addition of maturation cytokines) and the DC were harvested 2 days later. The DC were then washed once with AIM-V medium and used for T cell stimulation at a PBMC:DC ratio of 30:1. After 7 days, T cells were collected and restimulated with peptide-loaded DC. After the second stimulation, CD4^+ or CD8^+ T cells were recovered by positive selection with anti-CD4 or anti-CD8 magnetic beads (Dynabeads, Invitrogen), respectively, yielding populations of at least 95% purity. During the second and subsequent T cell passages (up to a maximum of six restimulations with peptide-loaded DC, at T cell:DC ratios of between 30:1 and 10:1), 20-100 U/ml IL-2 was added to the medium, and the cultures were periodically fed (every 2-3 days) by changing 50-70% of the medium and addition of fresh IL-2. Where indicated, T cell cultures were supplemented with 100 ng/ml IL-15, starting with the second passage.
as §1, with “T cells were labeled with cytokine-specific PE or FITC-conjugated mAb for 30 minutes at room temperature. After staining, the cells were washed twice in 0.5% saponin and 1% BSA in PBS, once with 0.5% BSA in PBS, and fixed in 2% paraformaldehyde in PBS.” left out

[4] = test system: matriptase 170-204 peptide-specific CD4+ T cells; assay: Intracellular Th1 cytokine (TNFα, IFNγ) expression after challenge with peptide-loaded autologous LCL; format: cell-based, human
Protocol: (§4) Peripheral blood was drawn from healthy adult volunteer donors, following an IRB-approved protocol. PBMC were recovered by gradient centrifugation (Lymphoprep; Greiner Bio-One, Longwood, Fla.). For preparation of DC, PBMC were placed in 6 well plates (Costar, Cambridge, Mass.) at a concentration of 5×10^6/well in AIM-V medium. After incubation for 2-3 hours at 37° C., non-adherent cells were removed and the medium was replaced with AIM-V plus 800 U/ml GM-CSF and 500 U/ml IL-4. On days 3 and 5, half the medium was removed and replaced with AIM-V plus 800 U/ml GM-CSF and 500 U/ml IL-4. Maturation cytokines (1 μM/ml PGE2, 1000 U/ml TNFα, and 500 U/ml IL-1β) were added on day 5. Where indicated, IL-15 (100 ng/ml) was present throughout DC culture (i.e., from day 0, and supplemented on days 3 and 5). […]
(§5) Foxp3 expression was determined according to the manufacturer's staining protocol (eBioscience), using the provided fixation and permeabilization buffers. Intracellular cytokine expression was measured by flow cytometry after overnight co-culture of T cells with peptide-pulsed or control autologous LCL. […] Samples were analyzed with a FACSCalibur (Becton-Dickinson) and Cellquest or WinMDI software.

[5] = test system: matriptase 170-204 peptide-specific CD4+ T cells; assay: Treg assay: coculture of peptide-specific CD4+ T cells with autologous alloreactive CD4+ T cells (MLR, 3H-TdR); format: cell-based, human
Protocol: as §3
DC-activated, peptide-specific T cells were tested for Treg activity in 3 day microwell cocultures with autologous alloreactive CD4^+ T cells at a 1:1 ratio. The alloreactive CD4^+ T cells were stimulated with irradiated (7,500 cGy) allogeneic LCL at a 2:1 ratio. Transwell cocultures were conducted in 12-well Costar plates with 0.4 μm polycarbonate membrane inserts, at the same cell ratios as conventional microwell cocultures. Peptide-specific T cells were placed in the upper chamber, and alloreactive CD4^+ T cells plus irradiated allogeneic LCL were placed in the lower chamber. For all assays, proliferation of alloreactive CD4^+ T cells was determined by addition of 1 μCi/well ^3H-TdR for the last 16 hours of incubation. No exogenous cytokines were added to Treg coculture assays. Controls were included to correct for background proliferation of individual cell populations or spontaneous alloreactivity of peptide-specific T cells.

[6] = test system: peptide-loaded autologous LCL; assay: 51Cr-release cytotoxicity assay, CD4+ T cells against peptide-loaded autologous LCL; format: cell-based, human
Protocol: as §3, with “After the second stimulation, CD4^+ or CD8^+ T cells were recovered by positive selection with anti-CD4 or anti-CD8 magnetic beads (Dynabeads, Invitrogen), respectively, yielding populations of at least 95% purity. During the second and subsequent T cell passages (up to a maximum of six restimulations with peptide-loaded DC, at T cell:DC ratios of between 30:1 and 10:1), 20-100 U/ml IL-2 was added to the medium, and the cultures were periodically fed (every 2-3 days) by changing 50-70% of the medium and addition of fresh IL-2. Where indicated, T cell cultures were supplemented with 100 ng/ml IL-15, starting with the second passage.” left out
(§6) Standard ^51Cr-release assays were performed as described (24). […] The percentage of target cell lysis was calculated as described (24).

[7] = test system: matriptase 170-204 peptide-specific CD8+ T cells; assay: Treg assay: coculture of peptide-specific CD8+ T cells with autologous alloreactive CD4+ T cells (MLR, 3H-TdR); format: cell-based, human
Protocol: as §4, with “5). For stimulation of peptide-specific CD4^+ helper T cell and CD8^+ CTL responses, DC were loaded with 50 μg/ml of peptide on day 5 (at the time of addition of maturation cytokines) and the DC were harvested 2 days later.” for “5).”
DC-activated, peptide-specific T cells were tested for Treg activity in 3 day microwell cocultures with autologous alloreactive CD4^+ T cells at a 1:1 ratio. […] For all assays, proliferation of alloreactive CD4^+ T cells was determined by addition of 1 μCi/well ^3H-TdR for the last 16 hours of incubation. […]

[8] = test system: matriptase 170-204 peptide-specific, DC-activated CD8+ T cells; assay: Foxp3 and GITR expression by flow cytometry, CD8+ T cells; format: cell-based, human
Protocol: as §3, with “During the second and subsequent T cell passages (up to a maximum of six restimulations with peptide-loaded DC, at T cell:DC ratios of between 30:1 and 10:1), 20-100 U/ml IL-2 was added to the medium, and the cultures were periodically fed (every 2-3 days) by changing 50-70% of the medium and addition of fresh IL-2. Where indicated, T cell cultures were supplemented with 100 ng/ml IL-15, starting with the second passage.” left out
as §5

[9] = test system: peptide-loaded autologous LCL; assay: 51Cr-release cytotoxicity assay, CD8+ T cells against peptide-loaded autologous LCL; format: cell-based, human
Protocol: as §3, with “After the second stimulation, CD4^+ or CD8^+ T cells were recovered by positive selection with anti-CD4 or anti-CD8 magnetic beads (Dynabeads, Invitrogen), respectively, yielding populations of at least 95% purity. During the second and subsequent T cell passages (up to a maximum of six restimulations with peptide-loaded DC, at T cell:DC ratios of between 30:1 and 10:1), 20-100 U/ml IL-2 was added to the medium, and the cultures were periodically fed (every 2-3 days) by changing 50-70% of the medium and addition of fresh IL-2. Where indicated, T cell cultures were supplemented with 100 ng/ml IL-15, starting with the second passage.” left out
as §6

[10] = test system: tumor antigen-specific CD4+ T cells; assay: CCR4 and CXCR4 expression by CD4+ T cells stimulated with treated DC; format: cell-based, human; conditions: treatment of DC
Protocol: as §2

[11] = test system: CD25 preferentially expressed by CD4+ Treg; conditions: patients with renal cell carcinoma, combined with tumor RNA-transfected DC vaccination; cited from earlier work
[12] = IL-15 added to CD4+ T cell cultures activated with conventional DC
[13] = conventional DC or IL-15-treated DC, T cells maintained with IL-2 plus IL-15

IL-15: interleukin-15, cytokine from R & D Systems, used at 100 ng/ml in DC and/or T cell culture
CD4+ T cell TNFα expression upon tumor antigen stimulation [1]: did not significantly increase | PD-1 expression by tumor antigen-specific CD4+ helper T cells [2]: markedly reduces | Foxp3 expression by CD4+ T cells [3, 12]: did not result in a significant change | frequency of GITR+ CD4+ T cells (total) [3, 12]: 8% | Foxp3 expression, proportion of CD4+ T cells ([3]; activated with IL-15-treated DC (100 ng/ml), maintained with IL-2, conventionally activated cells 33%): 20% | frequency of Foxp3+ and GITR+ CD4+ T cells ([3]; activated with IL-15 treated DC and maintained with IL-2 plus IL-15): markedly enhanced | antigen-driven cytokine responses (TNFα, IFNγ) of CD4+ T cells ([4]; combined IL-15 treatment of both DC and CD4+ T cells): synergistic gain | frequency of CD4+ T cells expressing TNFα and IFNγ ([4]; treatment of DC with IL-15 or treatment of CD4+ T cells with IL-15): small increment | restoration of the mixed lymphocyte reaction (CD4+ Treg activity) ([5]; IL-15-treated DC, or IL-15 treatment of CD4+ T cells activated with conventional DC): significant restoration | inhibition of the mixed lymphocyte reaction by peptide-specific CD4+ T cells (Treg activity) ([5]; T cells cultured with IL-15, or activated by DC cultured with IL-15, or both (bars B, C, D), conventional about 90%): less than 60% | restoration of the mixed lymphocyte reaction (CD4+ Treg activity) ([5]; both DC and CD4+ T cells treated with IL-15): further enhancement of alloreactivity | restoration of the mixed lymphocyte reaction (CD4+ Treg activity) ([5]; peptide-specific CD4+ T cells irradiated before coculture, IL-15 on DC, T cells or both): almost total restoration of the MLR | CD4+ T cell lysis of peptide-loaded LCL ([6]; IL-15-treated DC followed by culture with IL-2 plus IL-15, additive): further gain in lysis | CD4+ T cell cytotoxicity ([6]; IL-15 treatment of DC or CD4+ T cells): marked enhancement | CD8+ Treg activity ([7]; IL-15 treatment of DC alone): particularly effective in diminishing | CD8+ regulatory function ([7]; IL-15 treatment of DC, of CD8+ T cells, or both): markedly diminished | Foxp3 expression, proportion of CD8+ T cells ([8]; activated with IL-15-treated DC, maintained with IL-2): 37% | GITR expression by CD8+ T cells [8, 13]: did not show increased GITR expression | frequency of Foxp3+ CD8+ T cells [8, 13]: elevated frequencies | gain in lysis, CD8+ T cell cytotoxicity ([9]; IL-15 treatment of DC or CD8+ T cells): lower than observed for CD4^+ T cell responses | CD8+ T cell cytotoxicity against peptide-loaded LCL ([9]; combined treatment of both DC and CD8+ T cells with IL-15): strong synergistic increase | CD4+ T cell expression of CCR4 [10]: slightly inhibited | CD4+ T cell expression of CXCR4 [10]: enhances

denileukin diftitox
Treg in the peripheral blood [11]: reduced numbers of Treg | generation of tumor-specific T cell responses [11]: enhanced generation of tumor-specific T cell responses

p38 MAP kinase inhibitor III [reference compound]
CD4+ T cell TNFα expression upon tumor antigen stimulation [1]: did not significantly increase | PD-1 expression by tumor antigen-specific CD4+ helper T cells [2]: markedly reduces | CD4+ T cell expression of CCR4 [10]: markedly enhanced | CD4+ T cell expression of CXCR4 [10]: inhibited
